Experimental findings from ChEMBL document CHEMBL5465560, “Selectivity Literature for EUbOPEN Chemogenomic Library” (2024) are described below.

The target of data set [1] is PAS domain-containing serine/threonine-protein kinase (Homo sapiens) (UniProt Q96RG2). Put plainly: Selectivity interaction (Kinase panel (Z-LYTE Assay)) EUB0001632a PASK. The note with it: at 10 µM.
The target of data set [2] is Cyclin-dependent kinase 3 (Homo sapiens) (UniProt Q00526). Particulars: at 10 µM.
Data set [3] concerns the target T1, Mitogen-activated protein kinase kinase kinase 15 (Homo sapiens) (UniProt Q6ZN16).
T1 sequence (whole entry): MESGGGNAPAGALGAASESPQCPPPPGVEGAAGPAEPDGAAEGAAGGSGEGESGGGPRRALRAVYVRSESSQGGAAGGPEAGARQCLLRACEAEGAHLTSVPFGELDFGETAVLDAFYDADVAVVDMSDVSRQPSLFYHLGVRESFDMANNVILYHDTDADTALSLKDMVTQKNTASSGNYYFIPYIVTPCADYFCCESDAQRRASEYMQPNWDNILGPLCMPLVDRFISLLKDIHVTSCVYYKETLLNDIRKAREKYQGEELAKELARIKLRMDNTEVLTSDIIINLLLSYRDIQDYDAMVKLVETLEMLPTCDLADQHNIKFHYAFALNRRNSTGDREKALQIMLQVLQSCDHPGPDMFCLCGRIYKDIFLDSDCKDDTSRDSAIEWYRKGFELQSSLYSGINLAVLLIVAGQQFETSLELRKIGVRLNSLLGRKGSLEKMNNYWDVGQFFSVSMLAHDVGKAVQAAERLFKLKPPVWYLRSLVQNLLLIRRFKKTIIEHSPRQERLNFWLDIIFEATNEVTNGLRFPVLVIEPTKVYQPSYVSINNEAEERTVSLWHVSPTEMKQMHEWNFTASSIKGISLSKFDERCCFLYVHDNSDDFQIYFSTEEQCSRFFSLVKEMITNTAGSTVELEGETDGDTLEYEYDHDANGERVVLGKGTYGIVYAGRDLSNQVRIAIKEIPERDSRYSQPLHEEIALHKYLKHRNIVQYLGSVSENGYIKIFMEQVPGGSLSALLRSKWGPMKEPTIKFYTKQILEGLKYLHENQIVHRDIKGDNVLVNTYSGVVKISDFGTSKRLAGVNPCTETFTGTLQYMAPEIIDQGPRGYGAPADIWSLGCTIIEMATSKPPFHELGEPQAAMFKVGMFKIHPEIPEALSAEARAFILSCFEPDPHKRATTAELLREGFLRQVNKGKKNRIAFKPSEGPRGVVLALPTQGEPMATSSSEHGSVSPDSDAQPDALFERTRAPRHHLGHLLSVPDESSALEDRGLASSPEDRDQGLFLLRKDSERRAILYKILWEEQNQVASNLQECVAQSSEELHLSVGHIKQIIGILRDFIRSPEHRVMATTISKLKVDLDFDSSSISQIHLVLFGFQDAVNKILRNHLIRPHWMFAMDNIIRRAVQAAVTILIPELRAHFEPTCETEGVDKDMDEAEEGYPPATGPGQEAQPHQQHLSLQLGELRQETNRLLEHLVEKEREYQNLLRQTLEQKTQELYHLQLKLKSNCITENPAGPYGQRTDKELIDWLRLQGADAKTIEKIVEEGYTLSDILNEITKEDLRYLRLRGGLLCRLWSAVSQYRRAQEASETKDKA
Put plainly: Selectivity interaction (KinomeScan (DiscoverX)) EUB0000666a MAP3K15. The note with it: at 10 µM.

For data set [4], the target named is Vascular endothelial growth factor receptor 2 (Homo sapiens, UniProt P35968). Briefly: Selectivity interaction (Kinase panel (literature)) EUB0001199aCl KDR. Particulars: at 1 µM.
Data set [5] concerns the target Serine/threonine-protein kinase PAK 6 (Homo sapiens) (UniProt Q9NQU5). Briefly: Selectivity interaction (ProQinase) EUB0000171b PAK6. The note with it: at 5 µM.
For data set [6], the target named is Serine/threonine-protein kinase WNK1 (Homo sapiens) (UniProt Q9H4A3). Briefly: Selectivity interaction (Ambit KINOMEscan and KiNATiv profiling in Jurkat cells) EUB0000090b WNK1. Type of data set: cell-based. Particulars: at 1 µM.
The target in data set [7] is Serine/threonine-protein kinase/endoribonuclease IRE1 (Homo sapiens) (UniProt O75460). Put plainly: Selectivity interaction (KinomeScan (DiscoverX)) EUB0000092b ERN1. The note with it: at 10 µM.
The target in data set [8] is Rho-associated protein kinase 2 (Homo sapiens, UniProt O75116). Briefly: Selectivity interaction (KinomeScan (DiscoverX)) EUB0001079a ROCK2. Particulars: at 1 µM.
The target in the next data set is Nav1.5 (SCN5A) (Homo sapiens, UniProt Q14524). Put plainly: Selectivity interaction (Panel of kinases, GPCRs, ion channels and transporters (enzymatic assay)) EUB0000266bCl SCN5A.
Data set [9] concerns the target T2, G protein-coupled receptor kinase 3 (Homo sapiens) (UniProt P35626).
T2 sequence (whole entry): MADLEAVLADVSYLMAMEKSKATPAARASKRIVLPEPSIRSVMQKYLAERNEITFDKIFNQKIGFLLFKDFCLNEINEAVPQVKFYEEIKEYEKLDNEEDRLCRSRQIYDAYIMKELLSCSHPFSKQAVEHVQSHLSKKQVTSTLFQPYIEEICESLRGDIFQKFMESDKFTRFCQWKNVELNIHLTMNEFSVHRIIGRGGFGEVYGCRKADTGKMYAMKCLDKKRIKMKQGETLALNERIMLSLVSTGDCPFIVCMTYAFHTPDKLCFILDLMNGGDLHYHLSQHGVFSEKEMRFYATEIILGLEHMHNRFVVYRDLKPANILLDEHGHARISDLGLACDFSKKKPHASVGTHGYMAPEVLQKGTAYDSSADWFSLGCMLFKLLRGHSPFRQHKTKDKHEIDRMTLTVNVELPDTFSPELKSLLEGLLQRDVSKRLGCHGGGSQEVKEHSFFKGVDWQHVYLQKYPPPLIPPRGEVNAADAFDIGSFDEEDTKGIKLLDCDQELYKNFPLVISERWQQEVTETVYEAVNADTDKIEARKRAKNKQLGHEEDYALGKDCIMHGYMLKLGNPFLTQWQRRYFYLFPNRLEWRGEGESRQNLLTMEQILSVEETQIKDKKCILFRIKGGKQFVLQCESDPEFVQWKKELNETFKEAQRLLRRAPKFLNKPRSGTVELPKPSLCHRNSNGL
Briefly: Selectivity interaction (KinomeScan (DiscoverX)) EUB0000229b ADRBK2. The note with it: at 10 µM.

Chain of Serine/threonine-protein kinase/endoribonuclease IRE1 (Homo sapiens) (O75460 19-977 limits assumed): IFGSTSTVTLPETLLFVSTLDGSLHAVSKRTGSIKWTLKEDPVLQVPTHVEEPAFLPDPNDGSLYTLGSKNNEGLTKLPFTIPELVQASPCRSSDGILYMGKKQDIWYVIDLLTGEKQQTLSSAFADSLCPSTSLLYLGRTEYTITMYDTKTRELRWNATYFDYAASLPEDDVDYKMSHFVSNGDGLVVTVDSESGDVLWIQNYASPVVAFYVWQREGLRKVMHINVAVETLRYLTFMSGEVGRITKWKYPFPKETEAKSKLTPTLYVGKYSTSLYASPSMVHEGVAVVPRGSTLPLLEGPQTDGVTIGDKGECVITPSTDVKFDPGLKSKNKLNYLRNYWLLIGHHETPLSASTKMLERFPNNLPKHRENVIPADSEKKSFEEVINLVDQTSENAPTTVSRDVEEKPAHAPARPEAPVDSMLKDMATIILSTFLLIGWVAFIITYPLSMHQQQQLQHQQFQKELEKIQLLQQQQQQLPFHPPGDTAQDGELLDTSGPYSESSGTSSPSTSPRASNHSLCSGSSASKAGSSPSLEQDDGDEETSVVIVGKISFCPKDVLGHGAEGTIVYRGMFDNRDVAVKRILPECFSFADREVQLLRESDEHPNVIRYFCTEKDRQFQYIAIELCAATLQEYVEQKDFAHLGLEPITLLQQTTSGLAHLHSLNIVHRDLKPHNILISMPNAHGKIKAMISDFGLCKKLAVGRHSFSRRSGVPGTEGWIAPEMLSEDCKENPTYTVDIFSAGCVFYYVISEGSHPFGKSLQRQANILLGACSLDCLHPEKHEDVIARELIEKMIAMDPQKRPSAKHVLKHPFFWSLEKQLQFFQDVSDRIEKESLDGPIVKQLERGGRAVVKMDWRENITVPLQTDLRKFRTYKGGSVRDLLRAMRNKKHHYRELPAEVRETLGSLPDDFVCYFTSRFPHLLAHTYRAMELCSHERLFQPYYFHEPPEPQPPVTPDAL
Chain of Nav1.5 (SCN5A) (Q14524 whole entry): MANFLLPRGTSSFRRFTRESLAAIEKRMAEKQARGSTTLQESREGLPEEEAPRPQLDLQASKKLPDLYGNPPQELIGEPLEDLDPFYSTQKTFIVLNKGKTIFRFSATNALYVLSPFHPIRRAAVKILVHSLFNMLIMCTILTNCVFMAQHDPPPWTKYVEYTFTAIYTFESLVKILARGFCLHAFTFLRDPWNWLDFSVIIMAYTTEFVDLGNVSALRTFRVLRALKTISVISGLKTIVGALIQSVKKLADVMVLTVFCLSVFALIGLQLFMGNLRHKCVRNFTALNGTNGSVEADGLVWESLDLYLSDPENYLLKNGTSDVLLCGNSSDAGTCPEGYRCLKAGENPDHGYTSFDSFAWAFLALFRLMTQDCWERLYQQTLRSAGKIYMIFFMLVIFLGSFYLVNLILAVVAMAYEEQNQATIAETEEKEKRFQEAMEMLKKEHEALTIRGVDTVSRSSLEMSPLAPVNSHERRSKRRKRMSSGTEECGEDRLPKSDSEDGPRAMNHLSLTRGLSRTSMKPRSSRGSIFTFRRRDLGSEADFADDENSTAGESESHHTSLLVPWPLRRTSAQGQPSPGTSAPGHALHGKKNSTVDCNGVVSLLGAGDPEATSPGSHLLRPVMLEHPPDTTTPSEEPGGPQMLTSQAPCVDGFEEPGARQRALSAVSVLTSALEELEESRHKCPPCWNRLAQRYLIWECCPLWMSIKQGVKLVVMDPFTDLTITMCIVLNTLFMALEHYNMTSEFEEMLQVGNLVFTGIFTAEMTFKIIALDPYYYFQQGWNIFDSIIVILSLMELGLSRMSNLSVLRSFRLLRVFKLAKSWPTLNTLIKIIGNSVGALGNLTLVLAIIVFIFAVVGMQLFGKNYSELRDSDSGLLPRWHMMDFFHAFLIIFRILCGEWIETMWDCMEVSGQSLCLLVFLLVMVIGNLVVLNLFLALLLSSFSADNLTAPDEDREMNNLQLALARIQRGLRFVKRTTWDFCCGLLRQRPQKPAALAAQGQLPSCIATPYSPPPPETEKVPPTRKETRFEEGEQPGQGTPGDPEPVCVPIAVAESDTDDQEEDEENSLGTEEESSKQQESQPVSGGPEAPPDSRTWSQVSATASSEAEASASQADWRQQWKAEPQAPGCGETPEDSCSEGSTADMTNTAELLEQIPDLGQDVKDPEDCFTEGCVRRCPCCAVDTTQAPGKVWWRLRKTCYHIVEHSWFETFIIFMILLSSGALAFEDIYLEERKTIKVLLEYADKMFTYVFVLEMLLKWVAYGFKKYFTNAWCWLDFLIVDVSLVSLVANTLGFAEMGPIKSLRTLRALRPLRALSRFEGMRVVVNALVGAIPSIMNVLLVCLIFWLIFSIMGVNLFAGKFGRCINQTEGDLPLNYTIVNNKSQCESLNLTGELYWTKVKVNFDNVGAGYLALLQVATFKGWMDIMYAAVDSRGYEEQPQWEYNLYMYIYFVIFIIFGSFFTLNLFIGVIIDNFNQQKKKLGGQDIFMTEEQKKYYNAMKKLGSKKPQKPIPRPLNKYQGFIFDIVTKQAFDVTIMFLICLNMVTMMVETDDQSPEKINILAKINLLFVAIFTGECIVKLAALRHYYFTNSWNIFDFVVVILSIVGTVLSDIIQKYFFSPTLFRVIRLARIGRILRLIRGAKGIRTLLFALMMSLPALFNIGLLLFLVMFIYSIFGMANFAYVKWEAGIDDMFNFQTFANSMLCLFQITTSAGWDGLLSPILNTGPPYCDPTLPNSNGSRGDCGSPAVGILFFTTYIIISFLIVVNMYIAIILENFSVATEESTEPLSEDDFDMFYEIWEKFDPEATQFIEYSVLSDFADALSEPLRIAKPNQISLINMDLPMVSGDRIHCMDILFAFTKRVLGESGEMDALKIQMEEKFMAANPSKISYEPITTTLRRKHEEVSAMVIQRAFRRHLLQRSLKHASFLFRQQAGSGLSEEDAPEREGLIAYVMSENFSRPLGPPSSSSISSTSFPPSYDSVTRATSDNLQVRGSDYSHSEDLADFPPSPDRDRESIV
Chain of Vascular endothelial growth factor receptor 2 (P35968 whole entry): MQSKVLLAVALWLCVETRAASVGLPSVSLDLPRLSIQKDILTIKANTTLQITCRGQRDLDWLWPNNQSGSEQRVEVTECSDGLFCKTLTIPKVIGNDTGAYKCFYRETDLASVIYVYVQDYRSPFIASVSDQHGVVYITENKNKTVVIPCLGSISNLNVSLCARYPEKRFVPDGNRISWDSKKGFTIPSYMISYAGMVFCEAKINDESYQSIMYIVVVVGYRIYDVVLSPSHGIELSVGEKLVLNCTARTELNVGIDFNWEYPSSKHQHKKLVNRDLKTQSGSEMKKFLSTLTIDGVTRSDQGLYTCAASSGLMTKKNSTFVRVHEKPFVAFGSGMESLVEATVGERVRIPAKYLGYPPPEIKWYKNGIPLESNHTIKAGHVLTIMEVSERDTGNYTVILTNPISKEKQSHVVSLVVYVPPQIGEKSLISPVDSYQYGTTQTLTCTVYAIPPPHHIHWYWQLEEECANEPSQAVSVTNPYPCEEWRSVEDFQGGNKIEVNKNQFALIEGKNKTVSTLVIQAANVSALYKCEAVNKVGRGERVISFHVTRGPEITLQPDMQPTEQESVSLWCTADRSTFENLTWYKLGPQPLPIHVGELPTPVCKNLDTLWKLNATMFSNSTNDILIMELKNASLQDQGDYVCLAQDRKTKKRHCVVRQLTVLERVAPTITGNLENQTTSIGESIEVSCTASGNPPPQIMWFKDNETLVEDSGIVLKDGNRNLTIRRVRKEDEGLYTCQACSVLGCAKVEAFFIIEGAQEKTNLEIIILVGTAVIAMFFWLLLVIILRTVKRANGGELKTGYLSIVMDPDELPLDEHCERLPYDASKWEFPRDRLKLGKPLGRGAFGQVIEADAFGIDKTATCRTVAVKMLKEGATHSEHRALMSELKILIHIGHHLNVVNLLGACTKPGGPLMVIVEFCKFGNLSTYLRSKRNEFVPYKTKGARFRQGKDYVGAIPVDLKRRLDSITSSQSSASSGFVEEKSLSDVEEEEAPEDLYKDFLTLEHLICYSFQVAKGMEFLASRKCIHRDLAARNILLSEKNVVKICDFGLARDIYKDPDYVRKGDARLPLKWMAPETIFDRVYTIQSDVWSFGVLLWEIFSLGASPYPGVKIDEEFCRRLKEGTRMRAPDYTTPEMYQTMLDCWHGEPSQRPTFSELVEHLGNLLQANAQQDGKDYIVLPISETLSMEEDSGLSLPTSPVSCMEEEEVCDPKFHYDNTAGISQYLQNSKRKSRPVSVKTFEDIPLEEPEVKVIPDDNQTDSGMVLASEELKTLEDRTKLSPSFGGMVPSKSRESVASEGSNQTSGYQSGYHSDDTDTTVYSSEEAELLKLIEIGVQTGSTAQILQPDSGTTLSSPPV
Chain of Serine/threonine-protein kinase PAK 6 (Homo sapiens) (Q9NQU5 whole entry, looked up): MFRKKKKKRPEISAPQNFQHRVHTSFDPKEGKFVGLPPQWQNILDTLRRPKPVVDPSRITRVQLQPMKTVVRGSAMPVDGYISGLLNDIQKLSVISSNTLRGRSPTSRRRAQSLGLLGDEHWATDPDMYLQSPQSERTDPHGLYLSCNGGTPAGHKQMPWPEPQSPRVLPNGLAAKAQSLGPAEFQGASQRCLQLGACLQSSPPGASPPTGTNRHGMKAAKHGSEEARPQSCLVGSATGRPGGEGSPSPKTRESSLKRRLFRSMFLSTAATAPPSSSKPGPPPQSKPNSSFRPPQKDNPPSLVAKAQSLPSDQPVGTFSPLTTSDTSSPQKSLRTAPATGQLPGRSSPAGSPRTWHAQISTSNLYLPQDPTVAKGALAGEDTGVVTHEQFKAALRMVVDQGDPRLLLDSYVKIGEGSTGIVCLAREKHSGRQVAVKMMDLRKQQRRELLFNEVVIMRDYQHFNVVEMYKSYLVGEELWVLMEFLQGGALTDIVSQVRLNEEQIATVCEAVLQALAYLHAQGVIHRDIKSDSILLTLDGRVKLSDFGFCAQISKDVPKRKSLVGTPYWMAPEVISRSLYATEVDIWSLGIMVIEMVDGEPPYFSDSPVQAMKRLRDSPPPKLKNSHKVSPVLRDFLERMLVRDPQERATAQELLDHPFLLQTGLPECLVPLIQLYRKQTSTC

Regarding `Cn1cc(-n2cnc3c(NCc4nc5cc(Cl)c(Cl)cc5[nH]4)nc(N4CCOCC4)nc32)cn1`, the % of control in data set [1] was found to be 2.87%.
With `CCN(CC)CCCCNc1ncc2cc(-c3cc(OC)cc(OC)c3)c(NC(=O)NC(C)(C)C)nc2n1`, the % of control in data set [2] was found to be 100%.
Consider `O=C(NOC[C@H](O)CO)c1ccc(F)c(F)c1Nc1ccc(I)cc1F`, for which the % of control in data set [3] turned out to be 100%.
In turn, `CN1Cc2nccc(-c3cn(C)nc3-c3ccc(F)cc3)c2C1=O` had a % of inhibition in data set [4] of 8%.
For the compound `C=CC(=O)Nc1cccc(C(=O)Nc2ccc(Nc3cc(-c4[nH]c(SC)nc4C)ccn3)cc2)c1`, the % of control in data set [5] is 67%.
Compound `CN(C)C/C=C/C(=O)Nc1ccc(C(=O)N2CCCC(Nc3ncc(Cl)c(-c4c[nH]c5ccccc45)n3)C2)cc1` (stereo not given) had a % of control in data set [6] of 80%.
For the compound `CCC(=O)N1CCN(c2ccc(-n3c(=O)ccc4cnc5ccc(-c6cnc7ccccc7c6)cc5c43)cc2C(F)(F)F)CC1`, the % of control in [7] came out at 100%.
In data set [8], `Nc1cnc(N2CCc3cc(S(=O)(=O)Nc4c(F)cc(Cl)cc4F)cc(N4CCCC4=O)c32)nc1` [TP-020n] returned a % of control of 100%.
Regarding `CCn1c(-c2nc3cc(C(=O)N4CCCC(N)C4)ccc3n2C)cc2ccccc21` (stereo not given), the XC50 at Nav1.5 (SCN5A) was 31.6 µM.
Compound `COc1cc(N(C)c2ccnc3ccc(C(F)(F)F)cc23)cc(OC)c1OC` registered a % binding in data set [9] of 43%.
